US11767520B2, “Compositions and methods for treating lung inflammation” (aTyr Pharma, Inc., priority 2017, dated 2023)

Tests used:
[1] = test system: bleomycin-induced respiratory impairment; assay: Respiratory measurements by whole body plethysmography, BLM rat model, combination study (Example 3, Table E6); format: in vivo, rat (male Sprague Dawley); parameters: Tidal Volume: unit not given here; conditions: for Expiratory Time / Inspiratory Time / Peak Expiratory Flow / Peak Inspiratory Flow / Tidal Volume / Respiratory Rate / Respiratory Minute Volume: mean; for Respiratory Rate: in breaths/min (unit assumed); for Respiratory Minute Volume: in mL/min (unit assumed)
Method: (§1) PBS or BLM was administered under isoflurane anesthesia. Excess rats were induced with BLM and used to replace any animals with excessive body weight loss.
(§2) All treatments commenced on Day 9.
(§3) In-life, body weights were measured and clinical observations were conducted daily. On Days 8, 15 and 21, animals were removed from their home cages and placed individually into whole body plethysmography chambers. After a 20-minute acclimatization phase, respiratory parameters were recorded for 10 minutes. Pre-study and on Days 10 and Day 17, whole blood was obtained from the tail vein and processed to serum for measurement of HRS^FC1.

[2] = test system: bleomycin-induced lung inflammation; assay: Interstitial/alveolar inflammatory cell infiltrate score, BLM rat model, combination study (Example 3); format: in vivo, rat (male Sprague Dawley); conditions: BLM-induced rats; alone or in combination, vs PO plus IV vehicles; data not shown
Method: (§4) The five lung lobes were collected and weighed. On Day 17, the right accessory lobe was retained and desiccated to obtain dry weight. The remaining right lung lobes were inflated and fixed in 10% neutral buffered formalin and embedded in paraffin for histological analysis. An approximately 50 mg piece of the left lung lobe was snap frozen and stored at −80° C. for potential RNA analysis. The remainder of the lobe was also snap frozen until analyzed for collagen content.
(§5) Sections for histology were stained using picrosirius red and were scored in a blinded fashion (1 score for each of the 3-4 lobes) by a veterinary pathologist using a modified Ashcroft score (Hubner et al., 2008). Hydroxyproline content was determined in the left lung lobe using a mass spectrometry method.
(§6) Slides were read by a veterinary pathologist and each of the 3 lobes evaluated was assigned 4 score types [Ashcroft for fibrosis (scores range from 0 to 8), perivascular/peribronchiolar inflammatory cell infiltrate (scores range from 0 to 5), interstitial/alveolar inflammatory cell infiltrate (scores range from 0 to 5), type II pneumocyte hyperplasia (scores range from 0 to 5)].

[3] = test system: bleomycin-induced lung fibrosis; assay: Histological fibrosis (modified Ashcroft) score, BLM rat model, combination study (Example 3); format: in vivo, rat (male Sprague Dawley); conditions: BLM-induced rats; alone or in combination, vs PO plus IV vehicles; data not shown
Method: as §4, §5, §6

[4] = Body weight, BLM rat model, combination study (Example 3); format: in vivo, rat (male Sprague Dawley); conditions: BLM-induced rats; Nintedanib, Pirfenidone or Test Article (HRS^FC1 3 mg/kg IV weekly), alone or in combination, from Day 9
Method: as §1, §2, §3

[5] = Serum HRS^FC1 levels by sandwich ELISA, BLM rat model (Example 3); format: in vivo, rat (male Sprague Dawley); conditions: for Serum levels of HRS^FC1 ~24 hours post dose, vs HRS^FC1 plus oral vehicle: FIG. 6; for Amount of HRS^FC1 in serum 24 hours after IV injection: second confirmatory study, identical methods, data not shown
Method: as §2, §3
Serum samples from animals treated with HRS^FC1 were used to determine levels of the protein in systemic circulation using standard sandwich ELISA techniques with antibodies that capture the HRS moiety and detect the Fc portion of the fusion protein.
All statistical analyses were performed using GraphPad Prism (GraphPad Software, San Diego, Calif.). Groups were compared using the one-way ANOVA test (histology, lung weights, collagen content) or two-way repeated measures ANOVA test (pharmacokinetics), followed, when appropriate by a post-hoc Dunnett test.

[6] = test system: bleomycin-induced lung fibrosis; assay: Survival, BLM-induced lung fibrosis mouse model (Example 1, Table E2); format: in vivo, mouse (male C57Bl/6J); conditions: for Survival (number of animals surviving to study day): Dex. 0.25 mg/kg PO, BLM mice, 12 at start
Method: (§7) Lung inflammation and fibrosis were induced in male C57Bl/6J mice by oropharyngeal administration of BLM. After the habituation phase mice were randomized based on body weight over the different groups. Under isoflurane anesthesia, 50 μl PBS or BLM was dripped onto the vocal cords facilitating aspiration. Mice were sacrificed at day 21 using a terminal bleed under isoflurane anesthesia.
(§8) Daily oral treatments commenced on Day 0, while daily IV treatments commenced on Day 8. Dosing was planned to continue until the day of termination (Day 21), however, due to high mortality in IV treated groups (see results), IV dosing was skipped on Day 19 and Day 20. […] Subsequently, the mice received 8% D20 (Kinemed, Emeryville) drinking water until sacrifice to maintain labeling of newly formed collagen. Body weight was monitored three times a week.
The study commenced with 7 animals in the non-diseased control group and 12 animals in the BLM-induced groups. Survival is show in Table E2 below.

[7] = Body weight, BLM mouse model (Example 1); format: in vivo, mouse (male C57Bl/6J); conditions: BLM-induced mice; daily PO from Day 0: dexamethasone 0.25 mg/kg, Nintedanib 60 mg/kg
Method: as §7, §8

[8] = test system: bleomycin-induced lung fibrosis; assay: Lung wet and dry weight, BLM mouse model (Example 1); format: in vivo, mouse (male C57Bl/6J); conditions: BLM-induced mice; dexamethasone 0.25 mg/kg PO daily from Day 0
Method: as §7, §8
(§9) The five lung lobes were collected and isolated. Wet weight of the medial and accessory lung lobes was recorded. The lobes were then snap frozen and stored at <−70° C. until use for hydroxyproline analysis. The left lung lobe was inflated and fixed for 48 hours in 4% formaldehyde and embedded in paraffin for histological analysis. The cranial lung lobe was snap frozen and stored at −80° C. until shipment to Kinemed for the determination of new collagen formation.

[9] = test system: bleomycin-induced lung fibrosis; assay: Histological fibrosis (modified Ashcroft) score, BLM mouse model (Example 1); format: in vivo, mouse (male C57Bl/6J); conditions: BLM-induced mice; dexamethasone 0.25 mg/kg/dose from day of BLM instillation; Summary value, significant
Method: as §9
Sections of the left lung lobe were stained using Masson's Trichrome and were scored in a blinded fashion using a modified Ashcroft score (Hubner et al., BioTechniques. 44:507-511, 514-507, 2008). Hydroxyproline content was determined in the medial and accessory lung lobes using acid hydrolysis followed by a chromogenic assay (QuickZyme Biosciences, Leiden, Netherlands). Newly formed collagen was measured in the cranial lung lobe by Kinemed Inc., Emeryville, USA using the fraction of body water enriched in 2H for normalization.

[10] = Day 8 (prior to any treatments), Pirf. PO + Vehicle IV group

Cc1ccc(=O)n(-c2ccccc2)c1 [Pirf.]
Expiratory Time [1, 10]: 0.153 s | Inspiratory Time [1, 10]: 0.114 s | Peak Expiratory Flow [1, 10]: 19.5 | Peak Inspiratory Flow [1, 10]: 17.5 | Tidal Volume [1, 10]: 1.24 | Respiratory Rate [1, 10]: 247.6 | Respiratory Minute Volume [1, 10]: 314.8 | Expiratory Time ([1]; Day 15, Pirf. PO + Vehicle IV): 0.193 s | Inspiratory Time ([1]; Day 15, Pirf. PO + Vehicle IV): 0.135 s | Peak Expiratory Flow ([1]; Day 15, Pirf. PO + Vehicle IV): 15.0 | Peak Inspiratory Flow ([1]; Day 15, Pirf. PO + Vehicle IV): 15.6 | Tidal Volume ([1]; Day 15, Pirf. PO + Vehicle IV): 1.23 | Respiratory Rate ([1]; Day 15, Pirf. PO + Vehicle IV): 206.2 | Respiratory Minute Volume ([1]; Day 15, Pirf. PO + Vehicle IV): 260.2 | Expiratory Time ([1]; Day 21, Pirf. PO + Vehicle IV): 0.234 s | Inspiratory Time ([1]; Day 21, Pirf. PO + Vehicle IV): 0.148 s | Peak Expiratory Flow ([1]; Day 21, Pirf. PO + Vehicle IV): 13.0 | Peak Inspiratory Flow ([1]; Day 21, Pirf. PO + Vehicle IV): 15.8 | Tidal Volume ([1]; Day 21, Pirf. PO + Vehicle IV): 1.43 | Respiratory Rate ([1]; Day 21, Pirf. PO + Vehicle IV): 186.5 | Respiratory Minute Volume ([1]; Day 21, Pirf. PO + Vehicle IV): 259.6

Cc1ccc(=O)n(-c2ccccc2)c1 [Pirfenidone, pirfenidone]
Interstitial inflammatory cell infiltrate [2]: no significant effect | Interstitial inflammatory cell infiltrate (as printed in the Ashcroft score paragraph) [3]: no significant effect | BLM-induced alterations in respiratory parameters ([1]; BLM-induced rats, Day 15 and Day 21, Nintedanib, Pirfenidone or Test Article (HRS^FC1)): did not significantly impact | Body weight curves vs respective controls [4]: None of the groups treated with Nintedanib, Pirfenidone or Test Article alone or in combination had body weight curves that significantly differed

HRS^FC1: Test Article of Examples 2 and 3; HRS-Fc fusion protein Fc-HRS(2-60)
Serum levels of HRS^FC1, change between Days 17 and 22 ([5]; BLM-induced rats, 3 mg/kg IV on Days 9 and 16): decreased | Serum levels of HRS^FC1 ([5]; BLM-induced rats, 3 mg/kg IV on Days 9 and 16, Days 10, 17 and 22): detectable | Serum levels of HRS^FC1 ~24 hours post dose, vs HRS^FC1 plus oral vehicle ([5]; BLM-induced rats, concomitant oral Nintedanib 60 mg/kg once daily): significantly increased | Serum levels of HRS^FC1 ~24 hours post dose, vs HRS^FC1 plus oral vehicle ([5]; BLM-induced rats, concomitant oral Pirfenidone 70 mg/kg per dose three times daily): significantly increased | Amount of HRS^FC1 in serum 24 hours after IV injection ([5]; concomitant Nintedanib): increased | Amount of HRS^FC1 in serum 24 hours after IV injection ([5]; concomitant Pirfenidone): increased

C[C@@H]1C[C@H]2[C@@H]3CCC4=CC(=O)C=C[C@]4(C)[C@@]3(F)[C@@H](O)C[C@]2(C)[C@@]1(O)C(=O)CO [dexamethasone]
Survival rate ([6]; BLM-induced mice to Day 21, daily PO from Day 0: dexamethasone 0.25 mg/kg, Nintedanib 60 mg/kg): 75% | Survival (number of animals surviving to study day) ([6]; Day 11): 12 | Survival (number of animals surviving to study day) ([6]; Day 12): 12 | Survival (number of animals surviving to study day) ([6]; Day 13): 11 | Survival (number of animals surviving to study day) ([6]; Day 14): 10 | Survival (number of animals surviving to study day) ([6]; Day 15): 10 | Survival (number of animals surviving to study day) ([6]; Day 16): 10 | Survival (number of animals surviving to study day) ([6]; Day 17): 10 | Survival (number of animals surviving to study day) ([6]; Day 18): 9 | Survival (number of animals surviving to study day) ([6]; Day 19): 9 | Survival (number of animals surviving to study day) ([6]; Day 20): 9 | Survival (number of animals surviving to study day) ([6]; Day 21): 9 | Body weight, of initial body weights [7]: around 90% | Decrease of lung wet weight compared to PO vehicle group [8]: 15.6% | Improvement of Ashcroft fibrosis score [9]: 11.3%
